Laboratory results: the supplement of paper PMC12463676, “Small-molecule dissolution of stress granules by redox modulation benefits ALS models” (Nature Chemical Biology, 2025)

Tests used:
potassium arsenate = compound: O=[As]([O-])(O)O.[K+] [potassium arsenate]; assay: thermal stability z-score vs DMSO; higher = more thermally stabilized by treatment; settings: HeLa; arsenate concentration 1 mM
Protocol: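 Cellular thermal proteome profiling in HeLa cells treated with 1 mM arsenate for 1 h (DMSO pretreatment), heated to ten temperatures (37-66.3 °C). Soluble protein was quantified by TMT mass spectrometry relative to DMSO controls; the thermal stability score was transformed to a z-score; mean of n = 3 experiments.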

lipoamide = compound: NC(=O)CCCCC1CCSS1 [lipoamide]; assay: as above; settings: HeLa, lipoamide concentration 100 µM
Protocol: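 Cellular thermal proteome profiling in HeLa cells. Cells were treated with 100 µM lipoamide for 1 h, with or without 1 mM arsenate for a further 1 h, then heated to ten temperatures (37-66.3 °C), and soluble protein was quantified by TMT mass spectrometry relative to 0.1% DMSO controls. The thermal stability score (sum of log2 fold changes minus the abundance score) was transformed to a z-score; mean of n = 3 experiments.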

[1] = arsenate co-treatment: 1 mM arsenate 1 h
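Further: each temperature applied for 3 min, abundance score taken as mean log2 fold change at the two lowest temperatures, z-score obtained by mean subtraction and division by SD.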

UniProt Q9H3N1, sequence (Q9H3N1 whole entry): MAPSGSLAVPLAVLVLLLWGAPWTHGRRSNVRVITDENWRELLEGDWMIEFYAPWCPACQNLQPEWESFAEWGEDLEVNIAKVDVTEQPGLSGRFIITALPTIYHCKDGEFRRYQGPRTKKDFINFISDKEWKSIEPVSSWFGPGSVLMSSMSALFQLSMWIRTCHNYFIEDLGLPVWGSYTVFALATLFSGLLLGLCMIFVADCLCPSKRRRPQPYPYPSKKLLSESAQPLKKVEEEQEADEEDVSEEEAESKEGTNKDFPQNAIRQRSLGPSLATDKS
UniProt P48444, sequence (P48444 whole entry): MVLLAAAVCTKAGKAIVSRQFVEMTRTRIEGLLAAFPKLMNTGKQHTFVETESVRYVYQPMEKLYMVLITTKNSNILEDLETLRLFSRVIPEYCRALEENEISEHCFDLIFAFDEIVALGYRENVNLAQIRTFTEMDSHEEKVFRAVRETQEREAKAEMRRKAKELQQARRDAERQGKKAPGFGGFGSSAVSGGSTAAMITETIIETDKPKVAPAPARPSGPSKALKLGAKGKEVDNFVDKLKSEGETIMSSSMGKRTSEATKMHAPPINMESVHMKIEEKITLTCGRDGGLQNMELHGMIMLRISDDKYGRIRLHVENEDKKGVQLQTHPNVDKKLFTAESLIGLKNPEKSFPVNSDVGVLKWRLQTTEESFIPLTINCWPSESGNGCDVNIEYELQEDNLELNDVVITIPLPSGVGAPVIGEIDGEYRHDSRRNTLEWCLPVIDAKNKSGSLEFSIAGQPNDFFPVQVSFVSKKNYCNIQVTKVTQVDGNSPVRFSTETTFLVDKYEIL
UniProt Q9NWZ3, sequence (Q9NWZ3 whole entry): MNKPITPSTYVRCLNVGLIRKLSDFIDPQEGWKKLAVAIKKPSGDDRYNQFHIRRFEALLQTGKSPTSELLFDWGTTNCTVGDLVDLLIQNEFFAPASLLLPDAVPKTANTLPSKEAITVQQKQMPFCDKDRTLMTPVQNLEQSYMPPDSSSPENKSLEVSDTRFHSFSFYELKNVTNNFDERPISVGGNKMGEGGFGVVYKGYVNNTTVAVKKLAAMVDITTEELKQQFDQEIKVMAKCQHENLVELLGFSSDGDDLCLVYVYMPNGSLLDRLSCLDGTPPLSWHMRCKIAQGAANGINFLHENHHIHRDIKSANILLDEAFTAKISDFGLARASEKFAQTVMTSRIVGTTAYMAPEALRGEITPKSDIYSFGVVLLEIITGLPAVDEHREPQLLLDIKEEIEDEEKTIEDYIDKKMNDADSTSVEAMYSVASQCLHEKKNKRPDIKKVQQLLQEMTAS
UniProt Q6FI81, sequence (Q6FI81 whole entry): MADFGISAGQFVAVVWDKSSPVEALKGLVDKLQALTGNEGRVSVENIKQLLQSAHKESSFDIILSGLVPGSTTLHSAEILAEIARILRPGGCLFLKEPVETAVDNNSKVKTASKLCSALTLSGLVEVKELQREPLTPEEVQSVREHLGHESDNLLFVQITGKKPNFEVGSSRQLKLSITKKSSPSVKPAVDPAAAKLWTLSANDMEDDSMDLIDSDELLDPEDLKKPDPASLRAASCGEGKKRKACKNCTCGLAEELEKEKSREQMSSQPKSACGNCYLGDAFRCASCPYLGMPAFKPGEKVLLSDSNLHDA
UniProt Q99627, sequence (Q99627 whole entry): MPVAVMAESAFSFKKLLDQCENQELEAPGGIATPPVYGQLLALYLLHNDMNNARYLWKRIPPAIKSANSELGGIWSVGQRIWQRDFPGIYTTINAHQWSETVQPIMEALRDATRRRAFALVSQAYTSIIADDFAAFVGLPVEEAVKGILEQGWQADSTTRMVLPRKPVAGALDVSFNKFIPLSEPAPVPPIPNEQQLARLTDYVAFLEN
UniProt Q5JPI9, sequence (Q5JPI9 whole entry): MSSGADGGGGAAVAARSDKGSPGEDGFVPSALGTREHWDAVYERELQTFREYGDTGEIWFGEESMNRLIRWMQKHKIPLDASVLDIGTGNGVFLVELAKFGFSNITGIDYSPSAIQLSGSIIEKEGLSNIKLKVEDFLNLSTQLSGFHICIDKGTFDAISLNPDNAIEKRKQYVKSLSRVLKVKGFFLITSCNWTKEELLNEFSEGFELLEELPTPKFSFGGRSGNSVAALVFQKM
UniProt Q9UJ70, sequence (Q9UJ70 whole entry): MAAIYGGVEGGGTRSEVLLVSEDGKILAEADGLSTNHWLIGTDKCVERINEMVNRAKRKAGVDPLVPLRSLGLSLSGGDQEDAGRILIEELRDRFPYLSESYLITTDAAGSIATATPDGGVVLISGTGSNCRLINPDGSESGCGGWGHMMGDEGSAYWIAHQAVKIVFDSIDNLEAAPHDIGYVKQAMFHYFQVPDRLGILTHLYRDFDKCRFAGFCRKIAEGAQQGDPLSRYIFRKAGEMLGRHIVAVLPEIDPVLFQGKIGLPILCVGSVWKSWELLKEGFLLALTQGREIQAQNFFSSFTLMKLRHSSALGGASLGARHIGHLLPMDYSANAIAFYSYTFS
UniProt Q8IWZ8, sequence (Q8IWZ8 whole entry): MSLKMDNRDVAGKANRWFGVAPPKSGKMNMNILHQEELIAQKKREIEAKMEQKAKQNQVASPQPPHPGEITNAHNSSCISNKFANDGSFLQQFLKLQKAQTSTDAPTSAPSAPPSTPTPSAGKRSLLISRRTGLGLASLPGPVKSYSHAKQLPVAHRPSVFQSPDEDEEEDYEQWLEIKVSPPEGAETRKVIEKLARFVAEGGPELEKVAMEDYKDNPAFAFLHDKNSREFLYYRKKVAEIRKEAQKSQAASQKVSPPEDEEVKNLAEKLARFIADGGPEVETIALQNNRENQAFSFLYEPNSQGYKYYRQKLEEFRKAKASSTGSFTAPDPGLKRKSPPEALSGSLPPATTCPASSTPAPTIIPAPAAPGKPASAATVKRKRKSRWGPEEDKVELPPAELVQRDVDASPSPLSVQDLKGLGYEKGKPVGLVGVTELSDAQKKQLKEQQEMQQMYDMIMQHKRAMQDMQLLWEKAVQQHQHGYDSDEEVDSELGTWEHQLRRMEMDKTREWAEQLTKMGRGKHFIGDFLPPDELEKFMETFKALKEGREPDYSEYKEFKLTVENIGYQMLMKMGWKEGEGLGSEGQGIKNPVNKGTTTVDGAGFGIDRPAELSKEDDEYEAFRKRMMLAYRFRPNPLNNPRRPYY
UniProt P00813, sequence (P00813 whole entry): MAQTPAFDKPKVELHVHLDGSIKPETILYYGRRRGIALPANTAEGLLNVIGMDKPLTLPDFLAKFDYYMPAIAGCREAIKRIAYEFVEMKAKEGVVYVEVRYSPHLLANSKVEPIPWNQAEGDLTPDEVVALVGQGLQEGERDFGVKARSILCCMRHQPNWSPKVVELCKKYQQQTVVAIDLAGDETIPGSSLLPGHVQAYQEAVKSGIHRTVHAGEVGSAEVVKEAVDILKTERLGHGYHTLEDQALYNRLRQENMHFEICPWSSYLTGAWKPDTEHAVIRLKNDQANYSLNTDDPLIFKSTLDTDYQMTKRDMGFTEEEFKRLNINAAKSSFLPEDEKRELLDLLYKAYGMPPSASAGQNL
UniProt Q32P44, sequence (Q32P44 whole entry): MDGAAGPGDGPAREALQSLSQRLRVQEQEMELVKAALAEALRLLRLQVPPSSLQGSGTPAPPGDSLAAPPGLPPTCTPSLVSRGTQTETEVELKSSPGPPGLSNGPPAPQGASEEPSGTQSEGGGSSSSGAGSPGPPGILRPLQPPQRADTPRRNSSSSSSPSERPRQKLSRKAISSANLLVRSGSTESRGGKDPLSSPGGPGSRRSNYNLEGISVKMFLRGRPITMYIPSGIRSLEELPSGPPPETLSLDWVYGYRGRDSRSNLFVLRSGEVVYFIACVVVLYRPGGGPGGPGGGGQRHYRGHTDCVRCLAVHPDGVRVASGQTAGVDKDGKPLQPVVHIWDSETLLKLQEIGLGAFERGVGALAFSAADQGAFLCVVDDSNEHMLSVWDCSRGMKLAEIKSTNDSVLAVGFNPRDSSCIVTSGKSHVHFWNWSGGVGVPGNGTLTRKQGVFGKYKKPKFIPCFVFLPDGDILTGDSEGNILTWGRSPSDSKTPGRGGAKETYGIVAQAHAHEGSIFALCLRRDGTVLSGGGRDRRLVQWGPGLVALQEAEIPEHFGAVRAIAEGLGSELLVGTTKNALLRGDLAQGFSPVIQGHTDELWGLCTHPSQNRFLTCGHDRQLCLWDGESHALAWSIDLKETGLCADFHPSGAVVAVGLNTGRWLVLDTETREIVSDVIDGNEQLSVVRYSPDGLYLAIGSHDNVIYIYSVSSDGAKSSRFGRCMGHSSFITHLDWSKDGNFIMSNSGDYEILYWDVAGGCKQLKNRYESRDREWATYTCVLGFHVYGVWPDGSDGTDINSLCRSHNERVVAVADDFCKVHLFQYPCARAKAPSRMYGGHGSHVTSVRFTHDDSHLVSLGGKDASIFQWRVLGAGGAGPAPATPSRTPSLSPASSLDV
UniProt O14818, sequence (O14818 whole entry): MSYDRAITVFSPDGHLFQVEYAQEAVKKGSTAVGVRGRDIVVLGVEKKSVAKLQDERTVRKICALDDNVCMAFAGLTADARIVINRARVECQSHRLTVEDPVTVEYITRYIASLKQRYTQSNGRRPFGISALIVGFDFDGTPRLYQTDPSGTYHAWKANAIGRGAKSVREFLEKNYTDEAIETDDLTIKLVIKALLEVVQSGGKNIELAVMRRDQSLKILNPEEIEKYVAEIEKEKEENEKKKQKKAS
UniProt Q9BUB7, sequence (Q9BUB7 whole entry): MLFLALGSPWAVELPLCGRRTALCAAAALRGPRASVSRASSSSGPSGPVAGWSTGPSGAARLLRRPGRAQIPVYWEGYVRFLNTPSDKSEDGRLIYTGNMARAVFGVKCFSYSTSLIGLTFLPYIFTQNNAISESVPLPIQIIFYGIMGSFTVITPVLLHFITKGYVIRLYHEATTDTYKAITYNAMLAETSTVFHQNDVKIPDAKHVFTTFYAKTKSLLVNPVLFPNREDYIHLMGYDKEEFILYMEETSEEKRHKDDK
UniProt P62312, sequence (P62312 whole entry): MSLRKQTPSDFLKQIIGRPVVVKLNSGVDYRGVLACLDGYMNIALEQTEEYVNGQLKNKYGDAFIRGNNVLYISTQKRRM

Row | Target | thermal stability z-score (potassium arsenate) | thermal stability z-score (lipoamide; [1]) | thermal stability z-score (lipoamide; arsenate co-treatment: none)
1 | PACSIN3 (UniProt Q9UKS6) | -0.842 | 0.00517 | 0.149
2 | NABP2 (UniProt Q9BQ15) | -0.112 | -0.423 | -0.174
3 | INTS7 (UniProt Q9NVH2) | -0.0595 | 0.874 | -0.103
4 | PMPCB (UniProt O75439) | 0.353 | 0.254 | 0.207
5 | VPS37A (UniProt Q8NEZ2) | 0.0736 | 0.0547 | 0.243
6 | EIF1AX (UniProt P47813) | 0.464 | -0.268 | 0.0406
7 | AMPD2 (UniProt Q01433) | 0.172 | 0.297 | -0.25
8 | EML3 (UniProt Q32P44) | -0.524 | 0.0786 | -0.13
9 | NCS1 (UniProt P62166) | -0.124 | -0.202 | -0.195
10 | FUT8 (UniProt Q9BYC5) | 0.521 | -0.561 | -0.0456
11 | SCARB1 (UniProt Q8WTV0) | 0.58 | 0.0511 | 0.144
12 | IRAK4 (UniProt Q9NWZ3) | -0.11 | -0.11 | -0.0699
13 | DLGAP5 (UniProt Q15398) | -0.0873 | -0.352 | -0.378
14 | HYPK (UniProt Q9NX55) | -0.114 | 0.716 | 0.592
15 | SCD (UniProt O00767) | 1.66 | -1.45 | -2.34
16 | NAGK (UniProt Q9UJ70) | -0.921 | 0.0756 | -0.796
17 | PSMA7 (UniProt O14818) | 0.38 | 0.939 | 0.898
18 | MKRN1 (UniProt Q9UHC7) | -0.138 | -0.0831 | -0.0834
19 | EOGT (UniProt Q5NDL2) | 0.0751 | -1.18 | -0.664
20 | MSH3 (UniProt P20585) | -0.95 | -0.0133 | 0.43
21 | ZDHHC20 (UniProt Q5W0Z9) | 0.242 | 0.527 | 0.247
22 | MAGEA1 (UniProt P43355) | 1.03 | 0.195 | 0.0019
23 | RNF213 (UniProt Q63HN8) | -0.0363 | -0.473 | -0.111
24 | PSMB5 (UniProt P28074) | 0.113 | 0.395 | 0.222

Row | Target | thermal stability z-score (potassium arsenate) | thermal stability z-score (lipoamide; [1]) | thermal stability z-score (lipoamide; arsenate co-treatment: none)
25 | ADA (UniProt P00813) | -0.000857 | 0.792 | 0.403
26 | FLNB (UniProt O75369) | -0.574 | 0.683 | 0.798
27 | COPS8 (UniProt Q99627) | 0.171 | 0.0678 | -0.053
28 | TCOF1 (UniProt Q13428) | 0.157 | 0.957 | 0.648
29 | MCC (UniProt P23508) | -0.0394 | -0.1 | -0.0517
30 | SUGP1 (UniProt Q8IWZ8) | 0.928 | 0.164 | -0.049
31 | RHEB (UniProt Q15382) | 1.46 | -0.13 | 0.625
32 | CLASP2 (UniProt O75122) | 0.0564 | -0.0563 | -0.198
33 | CPNE8 (UniProt Q86YQ8) | -0.648 | 0.773 | 1.11
34 | KIF11 (UniProt P52732) | 1.19 | -0.347 | 0.00677
35 | PIKFYVE (UniProt Q9Y2I7) | -0.189 | 0.00547 | -0.0522
36 | USP5 (UniProt P45974) | 0.0981 | 0.0243 | 0.351
37 | TMX1 (UniProt Q9H3N1) | -0.418 | 0.948 | 1.34
38 | NUFIP2 (UniProt Q7Z417) | 1.08 | 0.354 | 0.487
39 | TMEM106B (UniProt Q9NUM4) | 0.192 | -0.167 | 0.154
40 | SH3BGRL (UniProt O75368) | 0.235 | 0.42 | 0.213
41 | ETFB (UniProt P38117) | -1.2 | -0.321 | 0.54
42 | WRNIP1 (UniProt Q96S55) | 0.0587 | -0.272 | -0.113
43 | FLNC (UniProt Q14315) | 0.567 | 0.266 | 0.657
44 | LSM6 (UniProt P62312) | -0.309 | 0.895 | 0.267
45 | USP22 (UniProt Q9UPT9) | 0.237 | -0.374 | 0.131
46 | GDPGP1 (UniProt Q6ZNW5) | -0.786 | -0.332 | -0.511
47 | TMEM70 (UniProt Q9BUB7) | 0.259 | 0.461 | -0.347
48 | DIS3 (UniProt Q9Y2L1) | -1.52 | -0.727 | -0.422

Row | Target | thermal stability z-score (potassium arsenate) | thermal stability z-score (lipoamide; [1]) | thermal stability z-score (lipoamide; arsenate co-treatment: none)
49 | ARCN1 (UniProt P48444) | 0.383 | 0.128 | -0.0303
50 | RPS6KC1 (UniProt Q96S38) | -0.393 | -0.161 | -0.151
51 | TARDBP (UniProt Q13148) | -0.755 | 0.125 | 0.504
52 | POFUT1 (UniProt Q9H488) | 1.06 | -3.78 | -3.17
53 | CPNE3 (UniProt O75131) | 0.283 | 1.73 | 2.22
54 | CSNK2B (UniProt P67870) | 0.656 | 1.66 | 1.48
55 | WBP2 (UniProt Q969T9) | -0.0559 | 0.689 | 0.465
56 | EXOSC6 (UniProt Q5RKV6) | -1.85 | 0.123 | 0.0946
57 | DDHD2 (UniProt O94830) | -0.0424 | 0.3 | -0.141
58 | CIAPIN1 (UniProt Q6FI81) | 0.186 | 0.671 | 0.397
59 | RFC2 (UniProt P35250) | 0.381 | -0.0963 | -0.26
60 | RPA2 (UniProt P15927) | 0.659 | -0.131 | -0.662
61 | DCTN1 (UniProt Q14203) | 0.369 | -0.27 | -0.171
62 | METTL10 (UniProt Q5JPI9) | 0.206 | -0.0093 | 0.0402
63 | FAM195A (UniProt Q9BUT9) | -0.164 | 0.00727 | 0.202
64 | CHAC2 (UniProt Q8WUX2) | 0.455 | -0.0361 | 0.0338
65 | CNDP2 (UniProt Q96KP4) | 0.248 | 0.517 | 0.0712
66 | ORC5 (UniProt O43913) | -0.065 | -0.0478 | 0.0761
67 | QSOX2 (UniProt Q6ZRP7) | 0.165 | 0.352 | 1.15
68 | GTF2H4 (UniProt Q92759) | 0.148 | 0.108 | 0.112
69 | GFPT1 (UniProt Q06210) | -0.331 | -0.127 | -0.196
70 | WDR61 (UniProt Q9GZS3) | -0.236 | 0.936 | 0.285
71 | DHX15 (UniProt O43143) | 0.00808 | -0.319 | -0.389
